Experimental data: publication PMC6458995, “MAP4K4 Inhibition Promotes Survival of Human Stem Cell-Derived Cardiomyocytes and Reduces Infarct Size In Vivo” (Cell Stem Cell, 2019)

Assays:
Assay in all cases: Dundee kinase panel
Type in all cases: biochemical
Details in all cases: for remaining activity at 1 µM: read-out: residual activity
EPH-A2 = biological target: T1, EPH-A2 (Homo sapiens, UniProt P29317)
T1 construct: lines 1-140) and Reaction Biology
Description: (§1) Compounds were screened at 1 μM. For key hits, pIC50 values were then determined by HTRF as above. […] Stability in mouse and human liver microsomes was determined by Cyprotex.

EPH-B4 = biological target: T2, EPH-B4 (Homo sapiens, UniProt P54760)
T2 construct: lines 1-140) and Reaction Biology
T2 sequence (P54760 16-987): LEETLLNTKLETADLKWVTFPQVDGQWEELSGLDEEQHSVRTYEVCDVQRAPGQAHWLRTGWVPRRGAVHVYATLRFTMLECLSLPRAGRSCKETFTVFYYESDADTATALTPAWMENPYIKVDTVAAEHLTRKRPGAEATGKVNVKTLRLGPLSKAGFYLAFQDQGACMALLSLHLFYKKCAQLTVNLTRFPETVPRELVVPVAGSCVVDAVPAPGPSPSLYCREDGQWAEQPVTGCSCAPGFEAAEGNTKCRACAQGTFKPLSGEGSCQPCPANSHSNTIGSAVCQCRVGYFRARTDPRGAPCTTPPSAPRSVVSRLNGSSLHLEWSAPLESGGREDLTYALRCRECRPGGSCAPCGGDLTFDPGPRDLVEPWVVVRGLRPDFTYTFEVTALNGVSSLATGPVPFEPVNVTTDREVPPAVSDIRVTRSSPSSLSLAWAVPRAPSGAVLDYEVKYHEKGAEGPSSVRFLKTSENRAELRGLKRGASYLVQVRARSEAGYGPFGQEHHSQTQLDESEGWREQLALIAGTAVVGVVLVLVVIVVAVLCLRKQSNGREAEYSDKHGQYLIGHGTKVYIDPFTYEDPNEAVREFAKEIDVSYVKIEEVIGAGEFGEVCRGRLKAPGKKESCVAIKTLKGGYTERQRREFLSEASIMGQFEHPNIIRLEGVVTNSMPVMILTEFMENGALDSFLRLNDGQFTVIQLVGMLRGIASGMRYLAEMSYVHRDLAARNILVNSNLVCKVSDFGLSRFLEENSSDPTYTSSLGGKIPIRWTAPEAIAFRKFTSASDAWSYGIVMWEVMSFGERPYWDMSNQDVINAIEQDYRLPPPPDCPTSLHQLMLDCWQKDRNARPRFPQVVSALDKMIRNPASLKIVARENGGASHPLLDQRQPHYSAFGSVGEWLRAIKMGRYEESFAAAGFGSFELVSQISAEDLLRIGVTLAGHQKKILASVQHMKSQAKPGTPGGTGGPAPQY
Description: as §1

CK2 = biological target: T3, CK2 (Homo sapiens, UniProt P68400)
T3 construct: lines 1-140) and Reaction Biology
Description: as §1

DYRK3 = biological target: T4, DYRK3 (Homo sapiens, UniProt O43781)
T4 construct: lines 1-140) and Reaction Biology
T4 sequence (O43781 1-588): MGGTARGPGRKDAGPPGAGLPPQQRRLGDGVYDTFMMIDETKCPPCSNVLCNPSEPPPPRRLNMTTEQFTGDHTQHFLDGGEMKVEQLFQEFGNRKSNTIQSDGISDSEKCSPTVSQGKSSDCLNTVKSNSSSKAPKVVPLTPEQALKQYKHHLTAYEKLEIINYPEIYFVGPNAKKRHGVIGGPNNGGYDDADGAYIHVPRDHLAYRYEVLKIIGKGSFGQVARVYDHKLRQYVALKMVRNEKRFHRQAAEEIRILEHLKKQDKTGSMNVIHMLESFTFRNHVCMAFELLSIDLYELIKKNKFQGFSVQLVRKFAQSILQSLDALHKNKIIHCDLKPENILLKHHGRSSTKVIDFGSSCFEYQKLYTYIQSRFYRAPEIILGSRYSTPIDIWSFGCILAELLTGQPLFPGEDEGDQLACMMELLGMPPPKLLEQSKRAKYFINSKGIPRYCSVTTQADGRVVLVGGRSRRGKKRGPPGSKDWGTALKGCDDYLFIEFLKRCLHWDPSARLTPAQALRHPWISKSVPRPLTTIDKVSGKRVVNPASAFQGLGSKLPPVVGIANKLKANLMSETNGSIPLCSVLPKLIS
Description: as §1

LKB1 = biological target: T5, LKB1 (Homo sapiens, UniProt Q15831)
T5 construct: lines 1-140) and Reaction Biology
T5 sequence (Q15831 1-433): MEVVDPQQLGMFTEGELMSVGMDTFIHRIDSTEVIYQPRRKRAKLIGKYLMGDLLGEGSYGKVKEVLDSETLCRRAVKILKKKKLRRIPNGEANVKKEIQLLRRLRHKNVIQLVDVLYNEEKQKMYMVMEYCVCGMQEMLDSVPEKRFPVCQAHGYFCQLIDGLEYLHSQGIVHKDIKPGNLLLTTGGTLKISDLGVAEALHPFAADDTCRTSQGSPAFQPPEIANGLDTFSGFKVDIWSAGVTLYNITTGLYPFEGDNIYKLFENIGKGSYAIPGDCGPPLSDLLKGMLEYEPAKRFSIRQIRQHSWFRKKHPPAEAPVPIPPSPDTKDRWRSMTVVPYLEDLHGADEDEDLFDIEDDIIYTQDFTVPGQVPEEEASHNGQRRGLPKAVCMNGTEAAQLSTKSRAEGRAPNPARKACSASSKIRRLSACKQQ
T5 sequence (Q7RTN6 1-431 partner): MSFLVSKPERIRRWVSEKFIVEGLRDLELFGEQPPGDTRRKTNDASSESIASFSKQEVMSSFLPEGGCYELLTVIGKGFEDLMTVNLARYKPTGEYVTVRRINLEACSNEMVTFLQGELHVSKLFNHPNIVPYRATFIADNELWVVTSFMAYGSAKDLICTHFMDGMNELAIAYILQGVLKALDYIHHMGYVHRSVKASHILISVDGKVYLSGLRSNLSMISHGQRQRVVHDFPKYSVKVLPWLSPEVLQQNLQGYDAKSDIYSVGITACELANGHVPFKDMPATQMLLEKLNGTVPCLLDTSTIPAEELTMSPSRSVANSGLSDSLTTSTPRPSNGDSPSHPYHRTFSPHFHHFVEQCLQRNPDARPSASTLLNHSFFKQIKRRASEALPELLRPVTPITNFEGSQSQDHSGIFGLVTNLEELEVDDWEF
T5 sequence (Q9Y376 1-341 partner): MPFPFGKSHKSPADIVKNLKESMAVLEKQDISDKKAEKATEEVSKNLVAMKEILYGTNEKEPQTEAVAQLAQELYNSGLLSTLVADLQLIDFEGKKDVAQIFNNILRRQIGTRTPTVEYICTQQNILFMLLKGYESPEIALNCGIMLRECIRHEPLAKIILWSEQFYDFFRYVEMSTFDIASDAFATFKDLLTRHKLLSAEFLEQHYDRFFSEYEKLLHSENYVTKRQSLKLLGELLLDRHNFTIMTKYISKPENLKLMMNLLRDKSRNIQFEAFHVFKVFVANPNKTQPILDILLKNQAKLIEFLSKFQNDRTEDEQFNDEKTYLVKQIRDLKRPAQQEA
Description: as §1

MKK2 = biological target: T6, MKK2 (Homo sapiens, UniProt P36507)
T6 construct: lines 1-140) and Reaction Biology
Description: as §1

T1 sequence (P29317 24-976): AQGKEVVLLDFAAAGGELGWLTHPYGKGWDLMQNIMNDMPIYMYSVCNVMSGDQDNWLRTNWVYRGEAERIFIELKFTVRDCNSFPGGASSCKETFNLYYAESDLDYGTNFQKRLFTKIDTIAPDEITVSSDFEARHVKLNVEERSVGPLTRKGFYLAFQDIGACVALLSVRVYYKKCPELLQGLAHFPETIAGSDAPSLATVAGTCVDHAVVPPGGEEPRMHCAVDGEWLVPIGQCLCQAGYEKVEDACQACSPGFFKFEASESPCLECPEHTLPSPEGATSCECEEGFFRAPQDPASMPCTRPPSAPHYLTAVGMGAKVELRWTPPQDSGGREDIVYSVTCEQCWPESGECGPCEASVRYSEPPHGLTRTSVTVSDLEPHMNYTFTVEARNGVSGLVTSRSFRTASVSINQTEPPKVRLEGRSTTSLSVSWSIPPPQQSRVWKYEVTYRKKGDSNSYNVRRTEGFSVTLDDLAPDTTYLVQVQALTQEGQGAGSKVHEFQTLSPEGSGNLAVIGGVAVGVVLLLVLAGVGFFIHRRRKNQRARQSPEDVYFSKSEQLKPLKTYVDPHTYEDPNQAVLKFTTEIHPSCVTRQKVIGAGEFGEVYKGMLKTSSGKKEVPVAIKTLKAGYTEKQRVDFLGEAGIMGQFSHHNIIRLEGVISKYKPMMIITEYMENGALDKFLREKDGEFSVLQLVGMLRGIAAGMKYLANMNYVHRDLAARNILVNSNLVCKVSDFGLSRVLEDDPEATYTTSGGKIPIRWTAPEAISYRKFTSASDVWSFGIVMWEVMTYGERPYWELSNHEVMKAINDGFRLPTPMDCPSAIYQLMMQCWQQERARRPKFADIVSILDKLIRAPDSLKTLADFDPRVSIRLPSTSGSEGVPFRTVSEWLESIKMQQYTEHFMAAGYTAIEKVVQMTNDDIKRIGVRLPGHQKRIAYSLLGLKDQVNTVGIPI
T6 sequence (P36507 whole entry): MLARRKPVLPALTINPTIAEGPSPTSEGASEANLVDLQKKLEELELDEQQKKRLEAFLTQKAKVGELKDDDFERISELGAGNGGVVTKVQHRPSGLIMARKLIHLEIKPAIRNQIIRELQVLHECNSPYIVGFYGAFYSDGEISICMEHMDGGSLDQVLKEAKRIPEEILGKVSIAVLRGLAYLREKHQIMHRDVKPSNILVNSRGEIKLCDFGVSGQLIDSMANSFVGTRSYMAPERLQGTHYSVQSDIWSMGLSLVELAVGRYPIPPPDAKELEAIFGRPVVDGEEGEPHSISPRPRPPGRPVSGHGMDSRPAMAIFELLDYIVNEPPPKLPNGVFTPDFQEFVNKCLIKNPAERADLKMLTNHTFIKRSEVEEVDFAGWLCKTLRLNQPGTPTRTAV
T3 sequence (P68400 whole entry): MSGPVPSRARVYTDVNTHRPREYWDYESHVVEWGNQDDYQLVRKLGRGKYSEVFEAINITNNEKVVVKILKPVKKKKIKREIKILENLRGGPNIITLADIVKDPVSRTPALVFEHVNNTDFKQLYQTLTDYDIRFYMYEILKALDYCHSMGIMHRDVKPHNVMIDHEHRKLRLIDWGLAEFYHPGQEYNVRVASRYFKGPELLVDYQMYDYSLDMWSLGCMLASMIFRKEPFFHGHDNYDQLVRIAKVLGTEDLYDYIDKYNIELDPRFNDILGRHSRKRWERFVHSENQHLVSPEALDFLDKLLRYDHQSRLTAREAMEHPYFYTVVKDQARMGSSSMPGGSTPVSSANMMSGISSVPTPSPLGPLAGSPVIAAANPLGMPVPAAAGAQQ

`O=C1Nc2ccc(I)cc2/C1=C/c1cc(Br)c(O)c(Br)c1` [GW5074] showed a remaining activity at 1 µM (EPH-A2) of 63%, a remaining activity at 1 µM (EPH-B4) of 94% and a remaining activity at 1 µM (CK2) of 72%. The remaining activity at 1 µM (DYRK3) was 14%, the remaining activity at 1 µM (LKB1) was 68% and the remaining activity at 1 µM (MKK2) was 79%.

With `Oc1ncnc2c1c(-c1ccccc1)cn2-c1ccccc1` [F1386-0303, 5,7-diphenyl-7H-pyrrolo[2,3-d]pyrimidin-4-ol] the remaining activity at 1 µM (EPH-A2) was 97%, the remaining activity at 1 µM (EPH-B4) was 102% and the remaining activity at 1 µM (CK2) was 77%. The remaining activity at 1 µM (DYRK3) was 101%, the remaining activity at 1 µM (LKB1) was 96% and the remaining activity at 1 µM (MKK2) was 102%.

In the case of `O=C1Cc2c([nH]c3ccc(Br)cc23)-c2ccccc2N1` [Kenpaullone], the remaining activity at 1 µM (EPH-A2) is reported as 103%, the remaining activity at 1 µM (EPH-B4) is reported as 85% and the remaining activity at 1 µM (CK2) is reported as 90%. For the same compound, the remaining activity at 1 µM (DYRK3) was 72%, the remaining activity at 1 µM (LKB1) was 89% and the remaining activity at 1 µM (MKK2) was 91%.

With `COCCOc1ccc(-c2cn(-c3ccccc3)c3nc[nH]c(=O)c23)cc1` [DMX-5804, 5-[4-(2-methoxy-ethoxy)-phenyl]-7-phenyl-3,7-dihydro-pyrrolo[2,3-d]pyrimidin-4-one] the remaining activity at 1 µM (EPH-A2) was 94%, the remaining activity at 1 µM (EPH-B4) was 100% and the remaining activity at 1 µM (CK2) was 104%. For the same compound, the remaining activity at 1 µM (DYRK3) was 128%, the remaining activity at 1 µM (LKB1) was 105% and the remaining activity at 1 µM (MKK2) was 98%.

Work on `Nc1ncc(C(=O)NC2CN(C(=O)C3CC3)C2)c2ccc(-c3cccc(F)c3)nc12` [GNE-495] yielded a residual activity (EPH-A2; 1 μM) of 112%, a residual activity (EPH-B4; 1 μM) of 106% and a residual activity (CK2; 1 μM) of 93%. For the same compound, the residual activity (DYRK3; 1 μM) was 83%, the residual activity (LKB1; 1 μM) was 87% and the residual activity (MKK2; 1 μM) was 75%.
